Source: ChEMBL document CHEMBL3616445, “Design, synthesis and biological evaluation of multifunctional ligands targeting opioid and bradykinin 2 receptors” (Bioorg Med Chem Lett, 2015)
Square brackets hold non-standard residues; d marks the D form. Side chains are listed from the residue outwards. Peptide text beside a SMILES is read from it. Oic = O=C(O)[C@@H]1C[C@@H]2CCCC[C@@H]2N1; Hyp = O=C(O)[C@@H]1C[C@@H](O)CN1; dTic = O=C(O)[C@H]1Cc2ccccc2CN1; 2Thi = N[C@@H](Cc1cccs1)C(=O)O; Dap = NC[C@H](N)C(=O)O

Experiments:
[1] = target: Delta-type opioid receptor (Homo sapiens, UniProt P41143); assay: Displacement of [3H]DPDPE from human delta opiod receptor
Mu-type opioid receptor = Mu-type opioid receptor (Rattus norvegicus, UniProt P33535); assay: Displacement of [3H]DAMGO from rat mu opiod receptor
B2 bradykinin receptor [2] = target: T1, B2 bradykinin receptor (Rattus norvegicus, UniProt P25023); assay: Displacement of [3H]BK from B2R in rat brain membranes by liquid scintillation counting in based radioligand competition assay; format: cell membranes, Membrane
T1 sequence (P25023 whole entry): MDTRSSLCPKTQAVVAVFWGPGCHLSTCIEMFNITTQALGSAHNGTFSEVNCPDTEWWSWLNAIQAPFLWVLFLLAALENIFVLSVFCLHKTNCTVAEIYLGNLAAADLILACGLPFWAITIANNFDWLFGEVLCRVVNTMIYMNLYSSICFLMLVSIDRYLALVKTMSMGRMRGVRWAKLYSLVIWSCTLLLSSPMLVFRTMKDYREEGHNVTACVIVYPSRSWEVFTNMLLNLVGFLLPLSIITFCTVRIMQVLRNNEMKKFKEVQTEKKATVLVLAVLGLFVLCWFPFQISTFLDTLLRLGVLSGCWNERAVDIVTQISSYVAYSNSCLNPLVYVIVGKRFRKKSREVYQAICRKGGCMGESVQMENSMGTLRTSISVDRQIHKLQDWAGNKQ

B2 bradykinin receptor [3] = target: T2, B2 bradykinin receptor (Cavia porcellus, UniProt O70526); assay: Antagonist activity against B2R in Hartley guinea pig ileum assessed as reduction in electrically-induced response; format: tissue-based
T2 sequence (O70526 whole entry): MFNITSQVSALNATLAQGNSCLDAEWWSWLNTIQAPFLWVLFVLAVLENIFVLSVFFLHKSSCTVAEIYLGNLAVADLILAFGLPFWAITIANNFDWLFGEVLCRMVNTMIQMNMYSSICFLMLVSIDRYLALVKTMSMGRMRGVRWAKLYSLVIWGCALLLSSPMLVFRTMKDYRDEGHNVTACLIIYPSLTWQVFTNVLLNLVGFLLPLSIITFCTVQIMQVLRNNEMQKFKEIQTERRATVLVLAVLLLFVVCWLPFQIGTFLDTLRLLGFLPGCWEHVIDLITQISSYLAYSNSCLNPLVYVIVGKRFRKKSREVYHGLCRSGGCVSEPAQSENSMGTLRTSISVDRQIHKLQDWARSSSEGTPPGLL

B2 bradykinin receptor [4] = target: T2, B2 bradykinin receptor; assay: Binding affinity to B2R in guinea pig ileum membranes; format: cell membranes, Membrane

Chain of Delta-type opioid receptor (P41143 whole entry): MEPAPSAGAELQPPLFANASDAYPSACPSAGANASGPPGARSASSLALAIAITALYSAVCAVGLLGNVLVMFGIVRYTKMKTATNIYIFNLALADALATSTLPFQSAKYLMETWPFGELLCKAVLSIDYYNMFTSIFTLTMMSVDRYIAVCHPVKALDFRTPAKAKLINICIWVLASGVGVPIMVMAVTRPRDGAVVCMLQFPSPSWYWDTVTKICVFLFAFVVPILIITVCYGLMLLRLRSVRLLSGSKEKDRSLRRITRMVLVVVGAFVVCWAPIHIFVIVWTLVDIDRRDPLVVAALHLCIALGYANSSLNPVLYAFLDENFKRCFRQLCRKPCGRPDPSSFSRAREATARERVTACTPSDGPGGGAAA
Chain of Mu-type opioid receptor (P33535 whole entry): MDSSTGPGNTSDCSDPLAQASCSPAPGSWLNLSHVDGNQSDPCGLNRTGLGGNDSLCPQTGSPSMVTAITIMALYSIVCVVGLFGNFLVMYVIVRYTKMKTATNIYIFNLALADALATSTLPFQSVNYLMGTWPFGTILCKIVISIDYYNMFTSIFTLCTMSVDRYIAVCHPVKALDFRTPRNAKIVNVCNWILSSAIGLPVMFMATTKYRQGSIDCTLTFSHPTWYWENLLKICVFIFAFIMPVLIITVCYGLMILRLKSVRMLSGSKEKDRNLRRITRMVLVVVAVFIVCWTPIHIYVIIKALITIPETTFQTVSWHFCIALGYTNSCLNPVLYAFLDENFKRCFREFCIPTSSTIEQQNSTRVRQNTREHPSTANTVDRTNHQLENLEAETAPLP

N=C(N)NCCC[C@H](NC(=O)[C@@H]1C[C@@H]2CCCC[C@@H]2N1C(=O)[C@H]1Cc2ccccc2CN1C(=O)[C@H](CO)NC(=O)[C@H](Cc1cccs1)NC(=O)CNC(=O)[C@@H]1C[C@@H](O)CN1C(=O)[C@@H]1CCCN1C(=O)[C@H](CCCNC(=N)N)NC(=O)[C@@H](CCCNC(=N)N)NC(=O)[C@H](Cc1ccccc1)NC(=O)[C@@H]1CCCN1C(=O)[C@@H](N)Cc1ccc(O)cc1)C(=O)O
Ki [1]: > 10000 nM | Ki (Mu-type opioid receptor): 2300 nM | pIC50 (Mu-type opioid receptor): 5.29 | Ki (B2 bradykinin receptor [2]): > 10000 nM

CSCC[C@H](NC(=O)[C@H](Cc1ccccc1)NC(=O)[C@@H](C)NC(=O)[C@@H](N)Cc1ccc(O)cc1)C(=O)N[C@H](CCCNC(=N)N)C(=O)N[C@@H](CCCNC(=N)N)C(=O)N1CCC[C@H]1C(=O)N1C[C@H](O)C[C@H]1C(=O)NCC(=O)N[C@@H](Cc1cccs1)C(=O)N[C@@H](CO)C(=O)N1Cc2ccccc2C[C@@H]1C(=O)N1[C@H](C(=O)N[C@@H](CCCNC(=N)N)C(=O)O)C[C@@H]2CCCC[C@@H]21
IC50 [1]: 17000 nM | Ki [1]: 6900 nM | IC50 (Mu-type opioid receptor): 155 nM | Ki (Mu-type opioid receptor): 70 nM | IC50 (B2 bradykinin receptor [3]): 1.8 nM | Ki (B2 bradykinin receptor [2]): 5200 nM

N=C(N)NCCC[C@H](NC(=O)[C@@H]1C[C@@H]2CCCC[C@@H]2N1C(=O)[C@H]1Cc2ccccc2CN1C(=O)[C@H](CO)NC(=O)[C@H](Cc1cccs1)NC(=O)CNC(=O)[C@@H]1C[C@@H](O)CN1C(=O)[C@@H]1CCCN1C(=O)[C@H](CCCNC(=N)N)NC(=O)[C@@H](CCCNC(=N)N)NC(=O)[C@H](Cc1ccccc1)NC(=O)[C@H](Cc1ccccc1)NC(=O)[C@@H]1CCCN1C(=O)[C@@H](N)Cc1ccc(O)cc1)C(=O)O
Ki [1]: > 10000 nM | Ki (Mu-type opioid receptor): 480 nM | pIC50 (Mu-type opioid receptor): 5.97 | IC50 (B2 bradykinin receptor [3]): 1.9 nM | Ki (B2 bradykinin receptor [2]): > 10000 nM

C[C@@H](NC(=O)[C@@H](N)Cc1ccc(O)cc1)C(=O)NCC(=O)N[C@@H](Cc1ccccc1)C(=O)N[C@H](CCCNC(=N)N)C(=O)N[C@@H](CCCNC(=N)N)C(=O)N1CCC[C@H]1C(=O)N1C[C@H](O)C[C@H]1C(=O)NCC(=O)N[C@@H](Cc1cccs1)C(=O)N[C@@H](CO)C(=O)N1Cc2ccccc2C[C@@H]1C(=O)N1[C@H](C(=O)N[C@@H](CCCNC(=N)N)C(=O)O)C[C@@H]2CCCC[C@@H]21
IC50 [1]: 4170 nM | IC50 (Mu-type opioid receptor): 22.9 nM | IC50 (B2 bradykinin receptor [3]): 1.7 nM | Ki (B2 bradykinin receptor [2]): > 10000 nM

C[C@@H](NC(=O)[C@@H](N)Cc1ccc(O)cc1)C(=O)NCC(=O)N[C@@H](Cc1ccccc1)C(=O)NCCC(=O)N[C@H](CCCNC(=N)N)C(=O)N[C@@H](CCCNC(=N)N)C(=O)N1CCC[C@H]1C(=O)N1C[C@H](O)C[C@H]1C(=O)NCC(=O)N[C@@H](Cc1cccs1)C(=O)N[C@@H](CO)C(=O)N1Cc2ccccc2C[C@@H]1C(=O)N1[C@H](C(=O)N[C@@H](CCCNC(=N)N)C(=O)O)C[C@@H]2CCCC[C@@H]21
IC50 [1]: 91.2 nM | IC50 (Mu-type opioid receptor): 3.09 nM

C[C@@H](NC(=O)[C@@H](N)Cc1ccc(O)cc1)C(=O)NCC(=O)N[C@@H](Cc1ccccc1)C(=O)NCCCCCCCC(=O)N[C@H](CCCNC(=N)N)C(=O)N[C@@H](CCCNC(=N)N)C(=O)N1CCC[C@H]1C(=O)N1C[C@H](O)C[C@H]1C(=O)NCC(=O)N[C@@H](Cc1cccs1)C(=O)N[C@@H](CO)C(=O)N1Cc2ccccc2C[C@@H]1C(=O)N1[C@H](C(=O)N[C@@H](CCCNC(=N)N)C(=O)O)C[C@@H]2CCCC[C@@H]21
IC50 [1]: 4.68 nM | IC50 (Mu-type opioid receptor): 1.23 nM

C[C@@H](NC(=O)[C@@H](N)Cc1ccc(O)cc1)C(=O)NCC(=O)N[C@@H](Cc1ccccc1)C(=O)NC[C@H](N)C(=O)N[C@H](CCCNC(=N)N)C(=O)N[C@@H](CCCNC(=N)N)C(=O)N1CCC[C@H]1C(=O)N1C[C@H](O)C[C@H]1C(=O)NCC(=O)N[C@@H](Cc1cccs1)C(=O)N[C@@H](CO)C(=O)N1Cc2ccccc2C[C@@H]1C(=O)N1[C@H](C(=O)N[C@@H](CCCNC(=N)N)C(=O)O)C[C@@H]2CCCC[C@@H]21
IC50 (Mu-type opioid receptor): 1.41 nM | Ki (Mu-type opioid receptor): 0.6 nM

C[C@@H](NC(=O)[C@@H](N)Cc1ccc(O)cc1)C(=O)NCC(=O)N[C@@H](Cc1ccccc1)C(=O)NC[C@H](N)C(=O)NCCC(=O)N[C@H](CCCNC(=N)N)C(=O)N[C@@H](CCCNC(=N)N)C(=O)N1CCC[C@H]1C(=O)N1C[C@H](O)C[C@H]1C(=O)NCC(=O)N[C@@H](Cc1cccs1)C(=O)N[C@@H](CO)C(=O)N1Cc2ccccc2C[C@@H]1C(=O)N1[C@H](C(=O)N[C@@H](CCCNC(=N)N)C(=O)O)C[C@@H]2CCCC[C@@H]21
Ki [1]: 7 nM | pIC50 [1]: 7.77 | Ki (Mu-type opioid receptor): 0.5 nM | pIC50 (Mu-type opioid receptor): 8.94

C[C@@H](NC(=O)[C@@H](N)Cc1ccc(O)cc1)C(=O)NCC(=O)N[C@@H](Cc1ccccc1)C(=O)NCCCCCCCC(=O)NC[C@H](N)C(=O)N[C@H](CCCNC(=N)N)C(=O)N[C@@H](CCCNC(=N)N)C(=O)N1CCC[C@H]1C(=O)N1C[C@H](O)C[C@H]1C(=O)NCC(=O)N[C@@H](Cc1cccs1)C(=O)N[C@@H](CO)C(=O)N1Cc2ccccc2C[C@@H]1C(=O)N1[C@H](C(=O)N[C@@H](CCCNC(=N)N)C(=O)O)C[C@@H]2CCCC[C@@H]21
IC50 (Mu-type opioid receptor): 0.813 nM | Ki (Mu-type opioid receptor): 0.3 nM

C[C@@H](NC(=O)[C@@H](N)Cc1ccc(O)cc1)C(=O)NCC(=O)N[C@@H](Cc1ccccc1)C(=O)NC[C@H](NC(=O)[C@@H]1CCCN1C(=O)[C@H](CCCNC(=N)N)NC(=O)[C@H](N)CCCNC(=N)N)C(=O)NCC(=O)N[C@@H](Cc1cccs1)C(=O)N[C@@H](CO)C(=O)N1Cc2ccccc2C[C@@H]1C(=O)N1[C@H](C(=O)N[C@@H](CCCNC(=N)N)C(=O)O)C[C@@H]2CCCC[C@@H]21
IC50 [1]: 6.76 nM | IC50 (Mu-type opioid receptor): 4.79 nM

NC(N)=NCCC[C@@H](N)C(=O)N[C@@H](CCCN=C(N)N)C(=O)N1CCC[C@H]1C(=O)N1C[C@H](O)C[C@H]1C(=O)NCC(=O)N[C@@H](Cc1cccs1)C(=O)N[C@@H](CO)C(=O)N1Cc2ccccc2C[C@@H]1C(=O)N1[C@H](C(=O)N[C@@H](CCCN=C(N)N)C(=O)O)C[C@@H]2CCCC[C@@H]21
Ki (B2 bradykinin receptor [4]): 1 nM | Ki (B2 bradykinin receptor [2]): > 10000 nM

C[C@@H](NC(=O)[C@@H](N)Cc1ccc(O)cc1)C(=O)NCC(=O)N[C@@H](Cc1ccccc1)C(=O)NC[C@H](NC(=O)[C@H](Cc1cccs1)NC(=O)CNC(=O)[C@@H]1C[C@@H](O)CN1C(=O)[C@@H]1CCCN1C(=O)[C@H](CCCNC(=N)N)NC(=O)[C@H](N)CCCNC(=N)N)C(=O)N1Cc2ccccc2C[C@@H]1C(=O)N1[C@H](C(=O)N[C@@H](CCCNC(=N)N)C(=O)O)C[C@@H]2CCCC[C@@H]21 (H-[dR]RP[Hyp]G[2Thi][Dap]([Phe-Gly-dA-Tyr])[dTic][Oic]R-OH)
IC50 [1]: 0.603 nM | IC50 (Mu-type opioid receptor): 15.5 nM
